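Cultured in 96-well plates, cells were exposed to test compound for 48 hours across five concentrations. Abbreviation: GI50, concentration required for 50% inhibition of growth.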 The source made the active and inactive calls. Cut-off read from the data, not from the text of the source: active = GI50 up to about 1.1 µM and inactive = higher. Where a SMILES comes first, the peptide text is derived from it.
Tests used:
Experiment in all cases: DTP human tumour cell line panel, 48 h
HT-29 = test system: HT-29
UACC-257 = test system: UACC-257
LXFL 529 = test system: LXFL 529
RPMI-8226 = test system: RPMI-8226
NCI-H226 = test system: NCI-H226
T47D = test system: T47D
SF-539 = test system: SF-539
DMS-114 = test system: DMS-114
HCT-15 = test system: HCT-15
SNB-75 = test system: SNB-75
UACC-62 = test system: UACC-62
SK-MEL-5 = test system: SK-MEL-5
CAKI-1 = test system: CAKI-1
SNB-19 = test system: SNB-19
KM-20L2 = test system: KM-20L2
RXF 393 = test system: RXF 393
SK-MEL-28 = test system: SK-MEL-28
TK-10 = test system: TK-10
KM12 = test system: KM12
NCI/ADR-RES = test system: NCI/ADR-RES

Row | Compound | GI50 (HT-29) | GI50 (UACC-257) | GI50 (LXFL 529) | GI50 (RPMI-8226) | GI50 (NCI-H226) | GI50 (T47D) | GI50 (SF-539) | GI50 (DMS-114) | GI50 (HCT-15) [µM] | GI50 (SNB-75) | GI50 (UACC-62) | GI50 (SK-MEL-5) | GI50 (CAKI-1) | GI50 (SNB-19) | GI50 (KM-20L2) | GI50 (RXF 393) | GI50 (SK-MEL-28) | GI50 (TK-10) | GI50 (KM12) | GI50 (NCI/ADR-RES)
1 | COC(=O)C1=C(C(=O)OC)C(C(=O)OC)C(C(=O)OC)C(C(=O)OC)(C(=O)OC)C(C(=O)OC)=C1C(=O)OC (stereo not given) | 13.3 µM (inactive) | 13.9 µM (inactive) | 9.73 µM (inactive) | 2.24 µM (inactive) | 15.9 µM (inactive) | 21.9 µM (inactive) | 17.7 µM (inactive) | 8.91 µM (inactive) | 8.39 | 19.2 µM (inactive) | 15.5 µM (inactive) | 17.2 µM (inactive) | 15.1 µM (inactive) | 17.6 µM (inactive) | 17.7 µM (inactive) | 7.43 µM (inactive) | 15.1 µM (inactive) | 15.6 µM (inactive) | 17.1 µM (inactive) | 
2 | COC(=O)c1nc(-c2ccc(Cl)c(Cl)c2)nc2ccccc12 | > 100 µM (inactive) | > 29.6 µM (inactive) | > 27.1 µM (inactive) | > 28.9 µM (inactive) | 13.7 µM (inactive) |  | 24.2 µM (inactive) | 19.8 µM (inactive) | > 100 | 5.04 µM (inactive) | > 27.7 µM (inactive) | > 35.8 µM (inactive) | 44.3 µM (inactive) | 5.89 µM (inactive) | > 100 µM (inactive) | 13.6 µM (inactive) | > 59.3 µM (inactive) | 34.6 µM (inactive) | > 85.7 µM (inactive) | 
3 | O=C(c1nc2ccc(Cl)cc2[nH]c1=O)C(O)c1cccc([N+](=O)[O-])c1 (stereo not given) | 16.3 µM (inactive) | > 100 µM (inactive) | > 100 µM (inactive) | 9.66 µM (inactive) | > 100 µM (inactive) |  | > 100 µM (inactive) | 5.98 µM (inactive) | > 100 | > 100 µM (inactive) | 67.6 µM (inactive) | 48.6 µM (inactive) | > 100 µM (inactive) | > 100 µM (inactive) | > 100 µM (inactive) | > 100 µM (inactive) | 26.7 µM (inactive) | > 100 µM (inactive) | 57 µM (inactive) | 
4 | COC(=O)C(Cl)=C1CC1 | 34.2 µM (inactive) | 31.6 µM (inactive) | 16 µM (inactive) | 21.8 µM (inactive) | > 100 µM (inactive) |  | 27.2 µM (inactive) | 31 µM (inactive) | 20.4 | 38.4 µM (inactive) | 59 µM (inactive) | 28.5 µM (inactive) | 17.9 µM (inactive) | > 100 µM (inactive) | > 100 µM (inactive) | 19.1 µM (inactive) | 22.9 µM (inactive) | 36.7 µM (inactive) | 37 µM (inactive) | 
5 | ClC(Cl)=C(Cl)C1(Cl)CC1COCc1ccccc1 (stereo not given) | 24.8 µM (inactive) | 26.1 µM (inactive) | 51.6 µM (inactive) | 15.8 µM (inactive) | 22.4 µM (inactive) |  | 51.6 µM (inactive) | 20.7 µM (inactive) | 33.3 | 37.2 µM (inactive) | 22.5 µM (inactive) | 15.8 µM (inactive) | 65.8 µM (inactive) | 36.9 µM (inactive) | 33.3 µM (inactive) | 18.1 µM (inactive) | 56.2 µM (inactive) | 60.8 µM (inactive) | 35 µM (inactive) | 
6 | COc1ccc(C(=O)/C=C/c2ccc(OCC(=O)N3CCN(c4ccccc4)CC3)cc2)cc1 | > 100 µM (inactive) | > 100 µM (inactive) | > 65.8 µM (inactive) | > 39.8 µM (inactive) | > 83 µM (inactive) | 35.6 µM (inactive) | 18.9 µM (inactive) | > 90.6 µM (inactive) | 54.7 | 23.7 µM (inactive) | 75.2 µM (inactive) | 59.6 µM (inactive) | 77.8 µM (inactive) | 27.9 µM (inactive) | > 100 µM (inactive) | 26.1 µM (inactive) | > 100 µM (inactive) | 44.7 µM (inactive) | > 76.4 µM (inactive) | 43.2 µM (inactive)
7 | COc1ccc(NC(=O)CC(=O)N2N=C(N(CCC#N)c3ccccc3Cl)CC2c2ccccc2)cc1 (stereo not given) | > 100 µM (inactive) | > 100 µM (inactive) | > 100 µM (inactive) | > 100 µM (inactive) | > 100 µM (inactive) |  | > 100 µM (inactive) | > 100 µM (inactive) | > 100 | > 100 µM (inactive) | > 100 µM (inactive) | > 100 µM (inactive) | > 100 µM (inactive) | > 100 µM (inactive) | > 100 µM (inactive) | > 100 µM (inactive) | > 100 µM (inactive) | > 100 µM (inactive) | > 100 µM (inactive) | 
8 | COC(=O)[C@@]12OC[C@]34C([C@@H](O)C1O)[C@@]1(C)CC(=O)C(OC(=O)CC(C)C(F)(F)F)=C(C)C1C[C@H]3OC(=O)[C@H](O)[C@H]42 (stereo not given in full) | 6.92 µM (inactive) | 2.93 µM (inactive) | 3.81 µM (inactive) | 0.594 µM (active) | 2.06 µM (inactive) |  | 1.51 µM (inactive) | 1.44 µM (inactive) | > 62.5 | 2.11 µM (inactive) | 1.12 µM (active) | 1.63 µM (inactive) | 9.4 µM (inactive) | 0.809 µM (active) | 3.8 µM (inactive) | 4.62 µM (inactive) | 1.53 µM (inactive) | 5.51 µM (inactive) | 11.2 µM (inactive) | 
9 | CCC(C)C1NC(=O)C2CCCN2C(=O)CNC(=O)C(C)NC(=O)C(Cc2ccccc2)NC(=O)C(C(C)C)NC1=O (stereo not given) (cyclo(GPIVFA); configuration not given here) | > 100 µM (inactive) | > 100 µM (inactive) | > 100 µM (inactive) | > 100 µM (inactive) | > 100 µM (inactive) |  | > 100 µM (inactive) | > 100 µM (inactive) | > 100 | > 100 µM (inactive) | > 100 µM (inactive) | > 100 µM (inactive) | > 100 µM (inactive) | > 100 µM (inactive) | > 100 µM (inactive) | > 100 µM (inactive) | > 100 µM (inactive) | > 100 µM (inactive) | 61.2 µM (inactive) | 

Reference: ChEMBL document CHEMBL1201862, “PubChem BioAssay data set” (2004)
